From ChEMBL document CHEMBL6103599, “Design of Potent Menin-KMT2A Interaction Inhibitors with Improved In Vitro ADME Properties and Reduced hERG Affinity” (ACS Med Chem Lett, 2025)

system: not listed separately; assay: Inhibition of His6-tagged MEN1 458-551 deletion A5T mutant (2 to 583 residues)/MLL (unknown origin) transfected in Escherichia coli BL21 (DE3) protein-protein interaction by TR-FRET assay; design: species or system Homo sapiens; conditions: not given

Row | SMILES | IC50 [nM]
1 | CCN(C(=O)c1cc(F)ccc1Oc1cncnc1N1CC2(CCN(CC(C)C)CC2)C1)C(C)C | 66
2 | CCN(C(=O)c1cc(F)ccc1Oc1cncnc1N1CC2(CCN(CC(C)(C)C)CC2)C1)C(C)C | 12
3 | CCN(C(=O)c1cc(F)ccc1Oc1cncnc1N1CC2(CCN(CC34CC(C3)C4)CC2)C1)C(C)C | 13
4 | C[C@@H]1COCC(=O)N1Cc1cc(F)ccc1Oc1nncnc1N1CC2(CCN(CC3(C)CC3)CC2)C1 | 4
5 | C[C@@H]1COC[C@H](C)N1C(=O)c1cc(F)ccc1Oc1nncnc1N1CC2(CCN(CC3(C)CC3)CC2)C1 | 9
6 | CCN(C(=O)c1cc(F)ccc1Oc1cncnc1N1CC2(CCN(CC3(C)CC3)CC2)C1)C(C)C | 7
7 | CCN(C(=O)c1cc(F)ccc1Oc1cncnc1N1CC2(CCN(C3CCCC3)CC2)C1)C(C)C | 18

Results, then the compound that gave them:

Row | IC50 [nM] | SMILES
8 | 160 | CCN(C(=O)c1cc(F)ccc1Oc1cncnc1N1CC2(CCN(C(C)=O)CC2)C1)C(C)C
9 | 4 | CON(C(=O)c1cc(F)ccc1Oc1nncnc1N1CC2(CCN(CC3(C)CC3)CC2)C1)C(C)C
10 | 4 | CC(C)C1(CN2CCC3(CC2)CN(c2ncnnc2Oc2ccc(F)cc2CN2C(=O)COC[C@H]2C)C3)CC1
11 | 8 | CCN(C(=O)c1cc(F)ccc1Oc1nncnc1N1CC2(CCN(CC3(SC)CC3)CC2)C1)C(C)C
12 | 11 | CCN(C(=O)c1cc(F)ccc1Oc1nnccc1N1CC2(CCN(CC3(C)CC3)CC2)C1)C(C)C
13 | 4 | CSC1(CN2CCC3(CC2)CN(c2ncnnc2Oc2ccc(F)cc2CN2C(=O)COC[C@H]2C)C3)CC1
14 | 4 | CCN(C(=O)c1cc(F)ccc1Oc1cncnc1N1CC2(CCN(CC3CCCC3)CC2)C1)C(C)C
15 | 5 | CSC1(CN2CCC3(CC2)CN(c2ncnnc2Oc2ccc(F)cc2CN2CCCC2=O)C3)CC1

system: not listed separately; assay: Volume of distribution at steady state in male CD-1 mouse at 1 mg/kg, iv measured after 8 hrs by LC-MS/MS analysis; assay type: ADME, organism-based; conditions: in vivo, read-out: Vdss

Row | SMILES | Vd [L/kg]
16 | CON(C(=O)c1cc(F)ccc1Oc1nncnc1N1CC2(CCN(CC3(C)CC3)CC2)C1)C(C)C | 1.7
17 | CC(C)C1(CN2CCC3(CC2)CN(c2ncnnc2Oc2ccc(F)cc2CN2C(=O)COC[C@H]2C)C3)CC1 | 5.44

target: Voltage-gated inwardly rectifying potassium channel KCNH2 (Homo sapiens, UniProt Q12809); assay: Inhibition of hERG expressed in CHO cells; assay type: toxicity, cell-based; conditions: not given
Sequence (Q12809 whole entry): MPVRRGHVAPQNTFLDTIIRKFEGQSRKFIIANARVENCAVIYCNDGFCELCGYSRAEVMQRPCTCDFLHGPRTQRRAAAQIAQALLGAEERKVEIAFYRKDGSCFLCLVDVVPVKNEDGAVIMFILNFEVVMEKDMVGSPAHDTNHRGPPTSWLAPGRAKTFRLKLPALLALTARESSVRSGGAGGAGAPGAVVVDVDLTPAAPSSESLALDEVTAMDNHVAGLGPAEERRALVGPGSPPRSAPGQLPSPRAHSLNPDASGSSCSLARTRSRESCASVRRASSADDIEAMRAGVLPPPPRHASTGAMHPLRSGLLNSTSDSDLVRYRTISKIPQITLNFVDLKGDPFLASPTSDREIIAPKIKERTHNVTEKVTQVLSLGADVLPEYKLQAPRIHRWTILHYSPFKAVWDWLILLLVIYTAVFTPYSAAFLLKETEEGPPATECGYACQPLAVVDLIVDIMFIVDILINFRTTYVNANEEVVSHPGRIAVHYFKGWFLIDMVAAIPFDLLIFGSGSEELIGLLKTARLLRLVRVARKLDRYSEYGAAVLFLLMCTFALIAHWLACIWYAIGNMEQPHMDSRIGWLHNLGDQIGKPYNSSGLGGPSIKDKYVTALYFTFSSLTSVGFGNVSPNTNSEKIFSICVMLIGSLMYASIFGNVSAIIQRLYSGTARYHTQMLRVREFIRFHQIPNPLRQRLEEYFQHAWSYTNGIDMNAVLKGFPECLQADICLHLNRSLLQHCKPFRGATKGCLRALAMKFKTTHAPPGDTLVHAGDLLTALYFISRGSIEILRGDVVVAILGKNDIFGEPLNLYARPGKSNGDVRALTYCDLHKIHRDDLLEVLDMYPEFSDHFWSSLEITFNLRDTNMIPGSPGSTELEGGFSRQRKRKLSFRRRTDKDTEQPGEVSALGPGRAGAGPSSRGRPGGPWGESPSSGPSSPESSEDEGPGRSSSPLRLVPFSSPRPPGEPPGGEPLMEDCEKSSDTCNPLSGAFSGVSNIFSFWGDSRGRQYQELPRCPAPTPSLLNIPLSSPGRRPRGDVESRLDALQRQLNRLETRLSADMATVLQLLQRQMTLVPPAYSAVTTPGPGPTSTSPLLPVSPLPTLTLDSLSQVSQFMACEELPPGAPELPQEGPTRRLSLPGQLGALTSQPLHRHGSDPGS

Row | SMILES | IC50 [nM]
18 | CCN(C(=O)c1cc(F)ccc1Oc1cncnc1N1CC2(CCN(CC(C)(C)C)CC2)C1)C(C)C | 2900
19 | CCN(C(=O)c1cc(F)ccc1Oc1nncnc1N1CC2(CCN(CC3(SC)CC3)CC2)C1)C(C)C | 75000
20 | CCN(C(=O)c1cc(F)ccc1Oc1nnccc1N1CC2(CCN(CC3(C)CC3)CC2)C1)C(C)C | 28000
21 | CCN(C(=O)c1cc(F)ccc1Oc1cncnc1N1CC2(CCN(CC3(C)CC3)CC2)C1)C(C)C | 10800

system: not listed separately; assay: Half life in male CD-1 mouse at 1 mg/kg, iv measured after 8 hrs by LC-MS/MS analysis; assay type: ADME, organism-based; conditions: in vivo

Row | SMILES | half-life [min]
22 | CON(C(=O)c1cc(F)ccc1Oc1nncnc1N1CC2(CCN(CC3(C)CC3)CC2)C1)C(C)C | 28.8
23 | CC(C)C1(CN2CCC3(CC2)CN(c2ncnnc2Oc2ccc(F)cc2CN2C(=O)COC[C@H]2C)C3)CC1 | 45.6

target: not listed separately; assay: Binding affinity to His6-tagged MEN1 458-551 deletion A5T mutant (unknown origin) assessed as dissociation constant by SPR analysis; design: species or system Homo sapiens; conditions: not given

Row | SMILES | Kd [nM]
24 | C[C@@H]1COCC(=O)N1Cc1cc(F)ccc1Oc1nncnc1N1CC2(CCN(CC3(C)CC3)CC2)C1 | 0.05

system: not listed separately; assay: Metabolic stability in human hepatocytes assessed as clearance by LC-MS analysis; assay type: ADME, cell-based, Hepatocyte; conditions: read-out: CLH

Row | SMILES | CLint scaled [mL/min/kg]
25 | C[C@@H]1COCC(=O)N1Cc1cc(F)ccc1Oc1nncnc1N1CC2(CCN(CC3(C)CC3)CC2)C1 | 4
26 | C[C@@H]1COC[C@H](C)N1C(=O)c1cc(F)ccc1Oc1nncnc1N1CC2(CCN(CC3(C)CC3)CC2)C1 | 5
27 | CCN(C(=O)c1cc(F)ccc1Oc1cncnc1N1CC2(CCN(CC3(C)CC3)CC2)C1)C(C)C | 11

Other lines, results leading:

Row | CLint scaled [mL/min/kg] | SMILES
28 | 7 | CON(C(=O)c1cc(F)ccc1Oc1nncnc1N1CC2(CCN(CC3(C)CC3)CC2)C1)C(C)C
29 | 10 | CC(C)C1(CN2CCC3(CC2)CN(c2ncnnc2Oc2ccc(F)cc2CN2C(=O)COC[C@H]2C)C3)CC1
30 | 14 | CCN(C(=O)c1cc(F)ccc1Oc1nncnc1N1CC2(CCN(CC3(SC)CC3)CC2)C1)C(C)C
31 | 8 | CCN(C(=O)c1cc(F)ccc1Oc1nnccc1N1CC2(CCN(CC3(C)CC3)CC2)C1)C(C)C
32 | 8 | CSC1(CN2CCC3(CC2)CN(c2ncnnc2Oc2ccc(F)cc2CN2C(=O)COC[C@H]2C)C3)CC1
33 | 11 | CSC1(CN2CCC3(CC2)CN(c2ncnnc2Oc2ccc(F)cc2CN2CCCC2=O)C3)CC1

system: not listed separately; assay: Clearance in male CD-1 mouse at 1 mg/kg, iv measured after 8 hrs by LC-MS/MS analysis; assay type: ADME, organism-based; conditions: in vivo

Row | SMILES | clearance [mL/min/kg]
34 | CON(C(=O)c1cc(F)ccc1Oc1nncnc1N1CC2(CCN(CC3(C)CC3)CC2)C1)C(C)C | 78.7
35 | CC(C)C1(CN2CCC3(CC2)CN(c2ncnnc2Oc2ccc(F)cc2CN2C(=O)COC[C@H]2C)C3)CC1 | 130

system: not listed separately; assay: Apparent permeability across apical to basolateral side in MDR1 knockout dog MDCKII cells incubated for 2 hrs by LC-MS/MS analysis; assay type: ADME, cell-based, Canis lupus familiaris, MDCK-II; conditions: MDCK

Row | SMILES | Papp A→B at 2 h [×10⁻⁶ cm/s]
36 | C[C@@H]1COCC(=O)N1Cc1cc(F)ccc1Oc1nncnc1N1CC2(CCN(CC3(C)CC3)CC2)C1 | 7
37 | C[C@@H]1COC[C@H](C)N1C(=O)c1cc(F)ccc1Oc1nncnc1N1CC2(CCN(CC3(C)CC3)CC2)C1 | 13
38 | CCN(C(=O)c1cc(F)ccc1Oc1cncnc1N1CC2(CCN(CC3(C)CC3)CC2)C1)C(C)C | 26

Second part, the compound after the results:

Row | Papp A→B at 2 h [×10⁻⁶ cm/s] | SMILES
39 | 30 | CON(C(=O)c1cc(F)ccc1Oc1nncnc1N1CC2(CCN(CC3(C)CC3)CC2)C1)C(C)C
40 | 35 | CC(C)C1(CN2CCC3(CC2)CN(c2ncnnc2Oc2ccc(F)cc2CN2C(=O)COC[C@H]2C)C3)CC1
41 | 42 | CCN(C(=O)c1cc(F)ccc1Oc1nncnc1N1CC2(CCN(CC3(SC)CC3)CC2)C1)C(C)C
42 | 7 | CCN(C(=O)c1cc(F)ccc1Oc1nnccc1N1CC2(CCN(CC3(C)CC3)CC2)C1)C(C)C
43 | 8 | CSC1(CN2CCC3(CC2)CN(c2ncnnc2Oc2ccc(F)cc2CN2C(=O)COC[C@H]2C)C3)CC1
44 | 6 | CSC1(CN2CCC3(CC2)CN(c2ncnnc2Oc2ccc(F)cc2CN2CCCC2=O)C3)CC1

system: not listed separately; assay: AUCinfinity in male CD-1 mouse at 1 mg/kg, iv measured after 8 hrs by LC-MS/MS analysis; assay type: ADME, organism-based; conditions: in vivo

Row | SMILES | AUC(0-inf) [ng·h/mL]
45 | CON(C(=O)c1cc(F)ccc1Oc1nncnc1N1CC2(CCN(CC3(C)CC3)CC2)C1)C(C)C | 212
46 | CC(C)C1(CN2CCC3(CC2)CN(c2ncnnc2Oc2ccc(F)cc2CN2C(=O)COC[C@H]2C)C3)CC1 | 128

system: HL-60; assay: Cytotoxicity against human HL-60 cells; assay type: functional, cell-based; conditions: not given

Row | SMILES | IC50 [nM]
47 | CCN(C(=O)c1cc(F)ccc1Oc1cncnc1N1CC2(CCN(C(C)=O)CC2)C1)C(C)C | > 5000
48 | CCN(C(=O)c1cc(F)ccc1Oc1cncnc1N1CC2(CCN(CC(C)C)CC2)C1)C(C)C | > 5000
49 | CCN(C(=O)c1cc(F)ccc1Oc1cncnc1N1CC2(CCN(CC(C)(C)C)CC2)C1)C(C)C | > 5000
50 | CCN(C(=O)c1cc(F)ccc1Oc1cncnc1N1CC2(CCN(CC34CC(C3)C4)CC2)C1)C(C)C | > 5000
51 | CCN(C(=O)c1cc(F)ccc1Oc1cncnc1N1CC2(CCN(CC3CCCC3)CC2)C1)C(C)C | > 5000
52 | CCN(C(=O)c1cc(F)ccc1Oc1cncnc1N1CC2(CCN(CC3(C)CC3)CC2)C1)C(C)C | > 5000
53 | CCN(C(=O)c1cc(F)ccc1Oc1cncnc1N1CC2(CCN(C3CCCC3)CC2)C1)C(C)C | > 5000

system: MV4-11; assay: Antiproliferative activity against human MV4-11 cells assessed as cell growth inhibition measured after 7 days by CellTiter-Glo assay; assay type: functional, cell-based; conditions: MV4-11, 168 h

Row | SMILES | IC50 [nM]
54 | CCN(C(=O)c1cc(F)ccc1Oc1cncnc1N1CC2(CCN(CC(C)C)CC2)C1)C(C)C | 416
55 | CCN(C(=O)c1cc(F)ccc1Oc1cncnc1N1CC2(CCN(CC(C)(C)C)CC2)C1)C(C)C | 72
56 | CCN(C(=O)c1cc(F)ccc1Oc1cncnc1N1CC2(CCN(CC34CC(C3)C4)CC2)C1)C(C)C | 20
57 | C[C@@H]1COCC(=O)N1Cc1cc(F)ccc1Oc1nncnc1N1CC2(CCN(CC3(C)CC3)CC2)C1 | 19
58 | C[C@@H]1COC[C@H](C)N1C(=O)c1cc(F)ccc1Oc1nncnc1N1CC2(CCN(CC3(C)CC3)CC2)C1 | 65
59 | CCN(C(=O)c1cc(F)ccc1Oc1cncnc1N1CC2(CCN(CC3(C)CC3)CC2)C1)C(C)C | 22
60 | CCN(C(=O)c1cc(F)ccc1Oc1cncnc1N1CC2(CCN(C3CCCC3)CC2)C1)C(C)C | 166

Now from value to compound:

Row | IC50 [nM] | SMILES
61 | > 5000 | CCN(C(=O)c1cc(F)ccc1Oc1cncnc1N1CC2(CCN(C(C)=O)CC2)C1)C(C)C
62 | 10 | CON(C(=O)c1cc(F)ccc1Oc1nncnc1N1CC2(CCN(CC3(C)CC3)CC2)C1)C(C)C
63 | 19 | CC(C)C1(CN2CCC3(CC2)CN(c2ncnnc2Oc2ccc(F)cc2CN2C(=O)COC[C@H]2C)C3)CC1
64 | 12 | CCN(C(=O)c1cc(F)ccc1Oc1nncnc1N1CC2(CCN(CC3(SC)CC3)CC2)C1)C(C)C
65 | 58 | CCN(C(=O)c1cc(F)ccc1Oc1nnccc1N1CC2(CCN(CC3(C)CC3)CC2)C1)C(C)C
66 | 13 | CSC1(CN2CCC3(CC2)CN(c2ncnnc2Oc2ccc(F)cc2CN2C(=O)COC[C@H]2C)C3)CC1
67 | 102 | CCN(C(=O)c1cc(F)ccc1Oc1cncnc1N1CC2(CCN(CC3CCCC3)CC2)C1)C(C)C
68 | 345 | CSC1(CN2CCC3(CC2)CN(c2ncnnc2Oc2ccc(F)cc2CN2CCCC2=O)C3)CC1

system: not listed separately; assay: Hepatic extraction ratio in male CD-1 mouse at 1 mg/kg, iv measured after 8 hrs by LC-MS/MS analysis; assay type: ADME, organism-based; conditions: in vivo, read-out: ERH

Row | SMILES | hepatic extraction ratio at 8 h
69 | CON(C(=O)c1cc(F)ccc1Oc1nncnc1N1CC2(CCN(CC3(C)CC3)CC2)C1)C(C)C | 0.874
